# Experiments:
# [1] = Antiplatelet activity in human platelet rich plasma assessed as inhibition of ADP-induced platelet aggregation by Born's method; type: functional
# [2] = molecular target: Integrin alpha-IIb/beta-3 (Homo sapiens, UniProt P05106+P08514); experiment: Inhibition of FITC-labelled fibrinogen binding to integrin alpha2b beta3 receptor in human platelet cells; type: cell-based
# Integrin alpha-IIb/beta-3, sequence (P05106 27-788 limits assumed): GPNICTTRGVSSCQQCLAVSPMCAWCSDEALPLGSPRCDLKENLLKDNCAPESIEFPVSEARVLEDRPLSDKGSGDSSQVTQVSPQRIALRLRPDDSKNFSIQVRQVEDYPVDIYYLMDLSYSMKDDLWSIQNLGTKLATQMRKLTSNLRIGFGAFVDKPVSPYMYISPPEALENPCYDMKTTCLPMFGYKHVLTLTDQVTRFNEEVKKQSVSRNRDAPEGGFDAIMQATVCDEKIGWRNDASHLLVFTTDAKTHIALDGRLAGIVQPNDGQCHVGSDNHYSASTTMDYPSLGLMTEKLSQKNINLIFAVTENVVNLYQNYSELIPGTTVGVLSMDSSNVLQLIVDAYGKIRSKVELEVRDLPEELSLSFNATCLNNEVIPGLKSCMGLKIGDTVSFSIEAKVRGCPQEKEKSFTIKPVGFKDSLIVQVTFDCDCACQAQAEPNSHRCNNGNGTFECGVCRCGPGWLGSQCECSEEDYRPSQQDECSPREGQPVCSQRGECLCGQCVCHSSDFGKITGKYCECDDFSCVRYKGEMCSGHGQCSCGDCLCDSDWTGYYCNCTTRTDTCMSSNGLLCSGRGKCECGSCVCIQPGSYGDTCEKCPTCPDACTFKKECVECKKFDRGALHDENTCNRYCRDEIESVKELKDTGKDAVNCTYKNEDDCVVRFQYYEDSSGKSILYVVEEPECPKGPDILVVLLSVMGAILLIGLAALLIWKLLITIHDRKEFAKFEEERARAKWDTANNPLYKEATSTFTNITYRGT
# Integrin alpha-IIb/beta-3, sequence (P08514 32-887 limits assumed): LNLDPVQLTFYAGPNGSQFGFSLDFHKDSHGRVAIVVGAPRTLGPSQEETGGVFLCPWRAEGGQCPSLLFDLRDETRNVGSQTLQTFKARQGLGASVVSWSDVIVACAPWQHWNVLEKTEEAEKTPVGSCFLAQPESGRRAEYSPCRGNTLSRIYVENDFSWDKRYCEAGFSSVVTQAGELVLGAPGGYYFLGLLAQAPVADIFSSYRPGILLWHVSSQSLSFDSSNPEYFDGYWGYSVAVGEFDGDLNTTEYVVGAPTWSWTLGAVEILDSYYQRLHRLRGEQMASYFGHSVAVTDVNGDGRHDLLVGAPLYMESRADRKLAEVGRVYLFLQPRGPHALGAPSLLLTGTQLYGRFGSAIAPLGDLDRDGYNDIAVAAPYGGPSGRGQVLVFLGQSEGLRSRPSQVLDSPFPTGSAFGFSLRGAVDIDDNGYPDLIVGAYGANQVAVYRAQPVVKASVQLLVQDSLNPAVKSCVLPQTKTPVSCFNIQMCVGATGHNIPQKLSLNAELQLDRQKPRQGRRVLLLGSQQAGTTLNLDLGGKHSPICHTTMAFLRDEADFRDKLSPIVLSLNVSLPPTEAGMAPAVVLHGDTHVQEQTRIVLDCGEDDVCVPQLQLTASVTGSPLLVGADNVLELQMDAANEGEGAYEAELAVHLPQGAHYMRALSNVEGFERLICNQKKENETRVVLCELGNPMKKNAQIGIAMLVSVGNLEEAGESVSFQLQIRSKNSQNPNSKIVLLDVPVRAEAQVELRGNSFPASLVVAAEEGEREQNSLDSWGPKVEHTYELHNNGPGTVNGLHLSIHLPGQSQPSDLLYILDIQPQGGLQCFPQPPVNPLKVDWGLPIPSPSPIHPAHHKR
# Integrin alpha-IIb/beta-3, sequence (P08514 891-1039 limits assumed): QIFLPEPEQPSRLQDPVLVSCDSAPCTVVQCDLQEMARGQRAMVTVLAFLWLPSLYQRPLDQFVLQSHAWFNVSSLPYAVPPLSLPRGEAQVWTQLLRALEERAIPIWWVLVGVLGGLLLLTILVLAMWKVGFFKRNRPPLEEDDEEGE
IC50 [1] [nM],IC50 [2] [nM],SMILES
1400,–,NCCCCC(=O)Nc1ccc2nc(N3CCNCC3)[nH]c(=O)c2c1
60,–,CCOC(=O)N[C@@H](CN)C(=O)Nc1ccc2nc(N3CCNCC3)[nH]c(=O)c2c1
10,1.57,NCC[C@H](NC(=O)OCc1ccccc1)C(=O)Nc1ccc2nc(N3CCNCC3)[nH]c(=O)c2c1
30,–,CCCCS(=O)(=O)N[C@@H](Cc1ccc(OCCCCC2CCNCC2)cc1)C(=O)O [TIROFIBAN]
570,–,O=C(Nc1ccc2nc(N3CCNCC3)[nH]c(=O)c2c1)c1ccc(C2CCNCC2)cc1
58000,–,NCCCCCC(=O)Nc1ccc2nc(N3CCNCC3)nc(-c3ccccc3)c2c1
170,55,CCC(=O)Nc1ccc2nc(N3CCNCC3)[nH]c(=O)c2c1
19,1.53,NC[C@H](NC(=O)OCc1ccccc1)C(=O)Nc1ccc2nc(N3CCNCC3)[nH]c(=O)c2c1
570,–,NCCC(=O)Nc1ccc2nc(N3CCNCC3)nc(-c3ccccc3)c2c1
1300,20,O=C(Nc1ccc2nc(N3CCNCC3)[nH]c(=O)c2c1)c1ccc(N2CCNCC2)cc1
40,1.8,CC(C)COC(=O)N[C@@H](CN)C(=O)Nc1ccc2nc(N3CCNCC3)[nH]c(=O)c2c1
49,–,NCCCC(=O)Nc1ccc2nc(N3CCNCC3)nc(-c3ccccc3)c2c1
48000,–,NCCCCC(=O)Nc1ccc2nc(N3CCNCC3)nc(-c3ccccc3)c2c1
1300,–,NCCCCCC(=O)Nc1ccc2nc(N3CCNCC3)[nH]c(=O)c2c1
720,–,CCC(=O)Nc1ccc2nc(N3CCNCC3)nc(-c3ccccc3)c2c1
1900,–,NCc1ccc(C(=O)Nc2ccc3nc(N4CCNCC4)[nH]c(=O)c3c2)cc1

# Reference: ChEMBL document CHEMBL3785050, “Synthesis, biological evaluation and molecular docking studies of 2-piperazin-1-yl-quinazolines as platelet aggregation inhibitors and ligands of integrin αIIbβ3” (Bioorg Med Chem Lett, 2016)
